Data from patent US20260325605A1, “INHIBITORS” (Zealand Pharma A/S, priority 2022, published 2026).

Assays:
Kv1.2 = target: T1, Kv1.2 (Homo sapiens, UniProt P16389); test: Patch clamp assay (QPatch), Kv1.2; type: cell-based; conditions: for IC50: QPatch, CHO cells stably expressing human Kv1.2, read-out: Potency IC50, Kv1.2; for Selectivity Kv1.2/Kv1.3: ratio of IC50 Kv1.2/Kv1.3
T1 construct: expressed in transfected cells

Kv1.3 = target: T2, Kv1.3 (Homo sapiens, UniProt P22001); test: Patch clamp assay (QPatch), Kv1.3; type: cell-based; conditions: CHO cells stably expressing human Kv1.3, read-out: Potency IC50, Kv1.3
T2 construct: expressed in transfected cells
T2 sequence (P22001 whole entry): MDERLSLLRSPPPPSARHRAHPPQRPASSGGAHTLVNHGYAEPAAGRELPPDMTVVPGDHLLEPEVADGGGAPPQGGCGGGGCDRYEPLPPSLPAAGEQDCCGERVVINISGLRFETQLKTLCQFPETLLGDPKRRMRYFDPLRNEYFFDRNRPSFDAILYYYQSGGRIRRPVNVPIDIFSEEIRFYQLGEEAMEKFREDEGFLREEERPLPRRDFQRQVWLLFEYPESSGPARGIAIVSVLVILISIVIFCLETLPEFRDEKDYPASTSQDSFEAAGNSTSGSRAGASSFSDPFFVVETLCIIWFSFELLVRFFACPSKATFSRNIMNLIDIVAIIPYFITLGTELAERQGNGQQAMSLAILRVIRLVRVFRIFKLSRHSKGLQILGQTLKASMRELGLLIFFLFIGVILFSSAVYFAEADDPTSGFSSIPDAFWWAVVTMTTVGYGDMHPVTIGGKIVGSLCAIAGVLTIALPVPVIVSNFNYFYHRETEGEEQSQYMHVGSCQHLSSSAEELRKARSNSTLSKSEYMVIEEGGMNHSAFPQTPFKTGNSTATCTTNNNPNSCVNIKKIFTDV
Procedure: Selectivity of Kv1.3 inhibitor peptides for Kv1.3 over other potassium ion channels (Kv1.1, Kv1.2 and Kv1.6) was determined using patch clamp assay.
Chinese Hamster Ovary (CHO) cell lines stably expressing exogenous human α-subunits of each potassium ion channel were grown and passaged under standard culture conditions.
The automated, chip-based planar patch clamp device QPatch® was used to quantitate the ionic currents. All recordings were made in the conventional whole-cell configuration after establishment of gigaohm seals. […] During experiments 0.1% (v/v) BSA was included as a vehicle in all external recording solutions. Currents were elicited from a holding potential of −80 mV using a voltage protocol, which shifted the voltage to 30 mV for 500 ms every 15 s.
Concentration-response relationships were established by cumulatively applying seven escalating concentrations of test sample to an individual cell with a recording period of 2 min per compound application.
The efficacy was determined as the mean charge for the last three sweeps at the end of each concentration application period from the cursor positions. The percent inhibition for each test dose application period was calculated as the reduction in mean cursor value (charge) relative to the cursor value measured at the end of the vehicle period and used to calculate the IC50 from the concentration response curve.

Kv1.1 = target: T3, Kv1.1 (Homo sapiens, UniProt Q09470); test: Patch clamp assay (QPatch), Kv1.1; type: cell-based; conditions: for IC50: QPatch, CHO cells stably expressing human Kv1.1, read-out: Potency IC50, Kv1.1; for Selectivity Kv1.1/Kv1.3: ratio of IC50 Kv1.1/Kv1.3
T3 construct: expressed in transfected cells
T3 sequence (Q09470 whole entry): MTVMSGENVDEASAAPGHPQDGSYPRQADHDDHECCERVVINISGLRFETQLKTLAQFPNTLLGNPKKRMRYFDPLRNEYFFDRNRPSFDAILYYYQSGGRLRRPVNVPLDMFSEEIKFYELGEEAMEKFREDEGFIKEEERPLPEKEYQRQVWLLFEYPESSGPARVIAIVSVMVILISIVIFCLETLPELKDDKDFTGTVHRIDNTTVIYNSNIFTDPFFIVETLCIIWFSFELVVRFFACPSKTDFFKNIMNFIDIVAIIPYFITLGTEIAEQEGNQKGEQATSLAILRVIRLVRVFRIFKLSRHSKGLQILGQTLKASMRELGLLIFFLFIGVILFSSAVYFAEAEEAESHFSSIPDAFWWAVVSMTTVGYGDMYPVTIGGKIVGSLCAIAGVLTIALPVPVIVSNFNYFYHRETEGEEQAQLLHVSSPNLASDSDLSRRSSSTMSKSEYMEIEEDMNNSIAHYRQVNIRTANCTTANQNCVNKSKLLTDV

Kv1.6 = target: T4, Kv1.6 (Homo sapiens, UniProt P17658); test: Patch clamp assay (QPatch), Kv1.6; type: cell-based; conditions: for IC50: QPatch, CHO cells stably expressing human Kv1.6, read-out: Potency IC50, Kv1.6; for Selectivity Kv1.6/Kv1.3: ratio of IC50 Kv1.6/Kv1.3
T4 construct: expressed in transfected cells
T4 sequence (P17658 whole entry): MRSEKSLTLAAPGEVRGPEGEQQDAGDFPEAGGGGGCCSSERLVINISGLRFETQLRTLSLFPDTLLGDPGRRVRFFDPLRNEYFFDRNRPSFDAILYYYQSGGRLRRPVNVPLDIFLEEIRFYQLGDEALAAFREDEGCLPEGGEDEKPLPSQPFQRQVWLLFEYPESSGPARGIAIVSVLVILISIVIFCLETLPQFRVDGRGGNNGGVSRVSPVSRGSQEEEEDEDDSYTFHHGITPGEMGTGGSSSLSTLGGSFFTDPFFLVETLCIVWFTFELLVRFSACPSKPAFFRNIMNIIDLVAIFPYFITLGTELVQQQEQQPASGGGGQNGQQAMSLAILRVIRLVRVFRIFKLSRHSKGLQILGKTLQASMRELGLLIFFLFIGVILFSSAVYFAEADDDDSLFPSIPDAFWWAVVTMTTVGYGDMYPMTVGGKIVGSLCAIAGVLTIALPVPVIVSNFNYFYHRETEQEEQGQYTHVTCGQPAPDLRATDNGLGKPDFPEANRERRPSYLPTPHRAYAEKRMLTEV

[1] = test system: T-cell activation in rat whole blood; test: Example 4: IL-17A release in thapsigargin stimulated rat whole blood; type: cell-based, rat (Lewis or Sprague-Dawley); conditions: 24 Hr, at least 2 replicates, unit inferred, read-out: IC50 (inhibition of IL-17A release)
From the text: Rat whole blood was used to assess the potency of Kv1.3 inhibitor peptides on T-cell activation as determined by IL-17A release after stimulation with thapsigargin. Addition of thapsigargin results in activation of a signalling cascade ending up in activation of T cell proliferation and cytokine production where the Kv1.3 ion channel plays a key role, so activity of Kv1.3 inhibitors in primary cells can be measured in this experimental system.
Rat whole blood was obtained from healthy, naïve Lewis or Sprague-Dawley rats that were terminally bleed from the heart using Sodium Heparin blood sampling tubes for collection. Peptides were diluted to 4× final testing concentrations in assay buffer (DMEM+GlutaMAX), GlutaMAX is a medium comprising 3.97 mM L-alanine-L-glutamine (Gibco Cat #61965026) supplemented with 25 mM HEPES buffer, 1 mM Sodium Pyruvate, 100 units/ml Penicillin, 100 μg/ml Streptomycin and 0.05% Casein from bovine milk (Sigma-Aldrich)) and 25 μl was added to wells of a 96 well plate. Then 50 μl whole rat blood was added and incubated for minimum 5 minutes at room temperature to allow compound binding. Then 25 μl 40 μM thapsigargin diluted in assay buffer was added to all wells of the assay plates to activate the cells, followed by incubation for 24 Hr at 37° C./5% CO2 in a humidified box. The assay plates were centrifuged for 10 min at 300 g at 4° C. and the supernatants were transferred to new plates. The concentrations of IL-17A released to the supernatants were measured using a Rat IL-17A ELISA Kit (Abcam Cat #ab214028) as recommended by the manufacturer. Samples were diluted 2.5-fold by transferring 20 μl of the supernatants to wells on ELISA plates containing 30 μl buffer 75BS from the detection kit.
Data from peptides eliciting an inhibition of IL-17A were normalised relative to full thapsigargin activation (no inhibitor added) and no activation controls (addition of assay buffer instead of thapsigargin) to calculate the IC50 from the concentration response curve.
Results are shown in Table 5, expressed as IC50, with standard deviation (IC50_SD). All values are derived from at least 2 replicates. The biological effects ex vivo show a correlation with the potency of the peptides.

T1 sequence (P16389 whole entry): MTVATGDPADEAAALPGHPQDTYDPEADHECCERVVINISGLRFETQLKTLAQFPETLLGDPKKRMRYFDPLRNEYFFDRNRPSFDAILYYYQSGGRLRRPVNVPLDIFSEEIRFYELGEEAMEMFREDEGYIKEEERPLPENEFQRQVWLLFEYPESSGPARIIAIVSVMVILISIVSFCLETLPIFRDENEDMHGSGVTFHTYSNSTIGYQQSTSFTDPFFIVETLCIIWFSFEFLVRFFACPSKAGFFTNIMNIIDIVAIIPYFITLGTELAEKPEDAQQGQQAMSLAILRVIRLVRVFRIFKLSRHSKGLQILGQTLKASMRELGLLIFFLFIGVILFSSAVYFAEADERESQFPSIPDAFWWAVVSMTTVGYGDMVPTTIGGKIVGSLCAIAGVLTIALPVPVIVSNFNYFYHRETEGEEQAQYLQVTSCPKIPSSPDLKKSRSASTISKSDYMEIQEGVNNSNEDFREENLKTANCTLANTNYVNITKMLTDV

With “H-S[Nle]D[Nle]RC(1)SASVEC(2)GQKC(3)LKAIGSIFGKC(1)MNKKC(2)KC(3)YPR-NH2 [Peptide 73]” the IC50 (Kv1.2) was 373 nM, the “Selectivity Kv1.2/Kv1.3” value (Kv1.2) was 3438 and the IC50 (Kv1.3) was 0.11 nM. The IC50 (Kv1.1) was over 3000 nM, the “Selectivity Kv1.1/Kv1.3” value (Kv1.1) was over 27700 and the IC50 (Kv1.6) was over 3000 nM. For the same substance, the “Selectivity Kv1.6/Kv1.3” value (Kv1.6) was over 27700 and the IC50 [1] was 0.3 nM.

“H-NMDMRC(1)SASVQC(2)KQKC(3)LKAIGSIFGKC(1)MNKKC(2)KC(3)YPR-NH2 [Peptide 29]” was tested, and the IC50 (Kv1.2) was 16 nM, the “Selectivity Kv1.2/Kv1.3” value (Kv1.2) was 83 and the IC50 (Kv1.3) was 0.2 nM. The IC50 (Kv1.1) was over 3000 nM, the “Selectivity Kv1.1/Kv1.3” value (Kv1.1) was over 15200 and the IC50 (Kv1.6) was 252 nM. The “Selectivity Kv1.6/Kv1.3” value (Kv1.6) was 1272 and the IC50 [1] was 0.53 nM.

With “H-P[Nle]E[Nle]RC(1)SASVEC(2)KQKC(3)LAAIGSIFGKC(1)[Nle]NKKC(2)KC(3)YPR-NH2 [Peptide 101]” the IC50 (Kv1.2) was 311 nM, the “Selectivity Kv1.2/Kv1.3” value (Kv1.2) was 1689 and the IC50 (Kv1.3) was 0.18 nM. The IC50 (Kv1.1) was over 3000 nM, the “Selectivity Kv1.1/Kv1.3” value (Kv1.1) was over 16200 and the IC50 (Kv1.6) was over 3000 nM. For the same substance, the “Selectivity Kv1.6/Kv1.3” value (Kv1.6) was over 16200 and the IC50 [1] was 0.34 nM.

In the case of “H-N[Nle]D[Nle]RC(1)SHSVEC(2)KQKC(3)LKAIGSIFGKC(1)[Nle]NKKC(2)KC(3)YPR-NH2 [Peptide 48]”, the IC50 (Kv1.2) is reported as 772 nM, the “Selectivity Kv1.2/Kv1.3” value (Kv1.2) is reported as 1438 and the IC50 (Kv1.3) is reported as 0.54 nM. For the same substance, the IC50 (Kv1.1) was over 3000 nM, the “Selectivity Kv1.1/Kv1.3” value (Kv1.1) was over 5600 and the IC50 (Kv1.6) was 609 nM. The “Selectivity Kv1.6/Kv1.3” value (Kv1.6) was 1134 and the IC50 [1] was 0.83 nM.

With “H-NMDMRC(1)SASVEC(2)KQKC(3)LKAIGSIFGKC(1)MNKKC(2)HC(3)YPR-NH2 [Peptide 38]” the IC50 (Kv1.2) was 338 nM, the “Selectivity Kv1.2/Kv1.3” value (Kv1.2) was 1816 and the IC50 (Kv1.3) was 0.19 nM. The IC50 (Kv1.1) was over 3000 nM, the “Selectivity Kv1.1/Kv1.3” value (Kv1.1) was over 16100 and the IC50 (Kv1.6) was over 3000 nM. The “Selectivity Kv1.6/Kv1.3” value (Kv1.6) was over 16100 and the IC50 [1] was 0.77 nM.

With “H-NMDMRC(1)SASVEC(2)KQKC(3)LKAIRSIFGKC(1)MNKKC(2)KC(3)YPR-NH2 [Peptide 22]” the IC50 (Kv1.2) was 57 nM, the “Selectivity Kv1.2/Kv1.3” value (Kv1.2) was 259 and the IC50 (Kv1.3) was 0.22 nM. The IC50 (Kv1.1) was over 3000 nM, the “Selectivity Kv1.1/Kv1.3” value (Kv1.1) was over 13700 and the IC50 (Kv1.6) was 626 nM. For the same substance, the “Selectivity Kv1.6/Kv1.3” value (Kv1.6) was 2851 and the IC50 [1] was 0.82 nM.

With “H-P[Nle]D[Nle]RC(1)SASVEC(2)KQKC(3)LKAIGC(4)IFGKC(1)[Nle]NKKC(2)KC(3)YPC(4)-NH2 [Peptide 85]” the IC50 (Kv1.2) was 624 nM, the “Selectivity Kv1.2/Kv1.3” value (Kv1.2) was 995 and the IC50 (Kv1.3) was 0.63 nM. For the same substance, the IC50 (Kv1.1) was over 3000 nM, the “Selectivity Kv1.1/Kv1.3” value (Kv1.1) was over 4800 and the IC50 (Kv1.6) was 1220 nM. For the same substance, the “Selectivity Kv1.6/Kv1.3” value (Kv1.6) was 1949 and the IC50 [1] was 0.81 nM.

With “H-N[Nle]D[Nle]RC(1)SASVEC(2)KQKC(3)LKAIGSPFGKC(1)[Nle]NKKC(2)KC(3)YPR-NH2 [Peptide 63]” the IC50 (Kv1.2) was 449 nM, the “Selectivity Kv1.2/Kv1.3” value (Kv1.2) was 1740 and the IC50 (Kv1.3) was 0.26 nM. The IC50 (Kv1.1) was over 3000 nM, the “Selectivity Kv1.1/Kv1.3” value (Kv1.1) was over 11600 and the IC50 (Kv1.6) was 2350 nM. For the same substance, the “Selectivity Kv1.6/Kv1.3” value (Kv1.6) was 9102 and the IC50 [1] was 0.44 nM.

“H-N[Nle]D[Nle]RC(1)SASVEC(2)KQKC(3)KAIGSIFGKC(1)[Nle]NKKC(2)KC(3)YPR-NH2 [Peptide 50]” was tested, and the IC50 (Kv1.2) was 164 nM, the “Selectivity Kv1.2/Kv1.3” value (Kv1.2) was 123 and the IC50 (Kv1.3) was 1.34 nM. For the same substance, the IC50 (Kv1.1) was over 3000 nM, the “Selectivity Kv1.1/Kv1.3” value (Kv1.1) was over 2200 and the IC50 (Kv1.6) was 946 nM. The “Selectivity Kv1.6/Kv1.3” value (Kv1.6) was 707 and the IC50 [1] was 1 nM.
